Assay results: patent US20100041089A1, “IMPROVED METHOD FOR DETECTING CHEMICAL […]” (priority 2006, published 2010)

Test system: yeast genes (expressed mRNA)
Assay: DNA chip measurement of expressed mRNA of yeast genes after culture with a toxic chemical substance
Format: cell-based, Saccharomyces cerevisiae S288C
How it was run: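 Yeast S288C, YPD 25° C; toxicant at log phase, 2 h, sublethal growth-inhibiting conc.; no-chemical control. Hot SDS/acetate RNA extraction, oligo-dT mRNA, Cy3/Cy5-dUTP RT. Whole-genome chip, 65° C >12 h. Readout: treated/control intensity ratio, ≥2 significant.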

Oc1cc(Cl)c(Cl)cc1Cl [(6), 2,4,5-Trichlorophenol]
The level of expressed mRNA in the presence of chemical substance/The level of expressed mRNA in the absence of chemical substance (yeast gene YJR054W, cultured two hours with substance): 0.7
The level of expressed mRNA in the presence of chemical substance/The level of expressed mRNA in the absence of chemical substance (yeast gene YKL039W): 4.9
The level of expressed mRNA in the presence of chemical substance/The level of expressed mRNA in the absence of chemical substance (yeast gene YKL071W, cultured two hours with substance): 18.6
The level of expressed mRNA in the presence of chemical substance/The level of expressed mRNA in the absence of chemical substance (yeast gene YKL086W, cultured two hours with substance): 1.0
The level of expressed mRNA in the presence of chemical substance/The level of expressed mRNA in the absence of chemical substance (yeast gene YKL151C, cultured two hours with substance): 2.0
The level of expressed mRNA in the presence of chemical substance/The level of expressed mRNA in the absence of chemical substance (yeast gene YKL153W, cultured two hours with substance): 2.9
The level of expressed mRNA in the presence of chemical substance/The level of expressed mRNA in the absence of chemical substance (yeast gene YKL195W, cultured two hours with substance): 2.5
The level of expressed mRNA in the presence of chemical substance/The level of expressed mRNA in the absence of chemical substance (yeast gene YKR076W): 4.7
The level of expressed mRNA in the presence of chemical substance/The level of expressed mRNA in the absence of chemical substance (yeast gene YKR091W, cultured two hours with substance): 1.0
The level of expressed mRNA in the presence of chemical substance/The level of expressed mRNA in the absence of chemical substance (yeast gene YLR054C, cultured two hours with substance): 1.2
The level of expressed mRNA in the presence of chemical substance/The level of expressed mRNA in the absence of chemical substance (yeast gene YLR149C, cultured two hours with substance): 1.4
The level of expressed mRNA in the presence of chemical substance/The level of expressed mRNA in the absence of chemical substance (yeast gene YLR152C, cultured two hours with substance): 2.1
The level of expressed mRNA in the presence of chemical substance/The level of expressed mRNA in the absence of chemical substance (yeast gene YLR194C, cultured two hours with substance): 0.9
The level of expressed mRNA in the presence of chemical substance/The level of expressed mRNA in the absence of chemical substance (yeast gene YLR280C, cultured two hours with substance): 0.9
The level of expressed mRNA in the presence of chemical substance/The level of expressed mRNA in the absence of chemical substance (yeast gene YLR324W, cultured two hours with substance): 1.2
The level of expressed mRNA in the presence of chemical substance/The level of expressed mRNA in the absence of chemical substance (yeast gene YLR350W, cultured two hours with substance): 1.6
The level of expressed mRNA in the presence of chemical substance/The level of expressed mRNA in the absence of chemical substance (yeast gene YLR387C, cultured two hours with substance): 1.9
The level of expressed mRNA in the presence of chemical substance/The level of expressed mRNA in the absence of chemical substance (yeast gene YLR460C, cultured two hours with substance): 0.6
The level of expressed mRNA in the presence of chemical substance/The level of expressed mRNA in the absence of chemical substance (yeast gene YML117W, cultured two hours with substance): 1.0
The level of expressed mRNA in the presence of chemical substance/The level of expressed mRNA in the absence of chemical substance (yeast gene YML128C, cultured two hours with substance): 5.1
The level of expressed mRNA in the presence of chemical substance/The level of expressed mRNA in the absence of chemical substance (yeast gene YMR009W, cultured two hours with substance): 1.2
The level of expressed mRNA in the presence of chemical substance/The level of expressed mRNA in the absence of chemical substance (yeast gene YMR067C, cultured two hours with substance): 1.4
The level of expressed mRNA in the presence of chemical substance/The level of expressed mRNA in the absence of chemical substance (yeast gene YMR090W, cultured two hours with substance): 3.8
The level of expressed mRNA in the presence of chemical substance/The level of expressed mRNA in the absence of chemical substance (yeast gene YMR095C, cultured two hours with substance): 0.7
The level of expressed mRNA in the presence of chemical substance/The level of expressed mRNA in the absence of chemical substance (yeast gene YMR097C, cultured two hours with substance): 1.2
The level of expressed mRNA in the presence of chemical substance/The level of expressed mRNA in the absence of chemical substance (yeast gene YMR102C, cultured two hours with substance): 6.3
The level of expressed mRNA in the presence of chemical substance/The level of expressed mRNA in the absence of chemical substance (yeast gene YMR107W, cultured two hours with substance): 1.0
The level of expressed mRNA in the presence of chemical substance/The level of expressed mRNA in the absence of chemical substance (yeast gene YMR140W, cultured two hours with substance): 17.1
The level of expressed mRNA in the presence of chemical substance/The level of expressed mRNA in the absence of chemical substance (yeast gene YMR173W (stress protein genes)): 5.0
The level of expressed mRNA in the presence of chemical substance/The level of expressed mRNA in the absence of chemical substance (yeast gene YMR180C, cultured two hours with substance): 2.4
The level of expressed mRNA in the presence of chemical substance/The level of expressed mRNA in the absence of chemical substance (yeast gene YMR184W, cultured two hours with substance): 0.9
The level of expressed mRNA in the presence of chemical substance/The level of expressed mRNA in the absence of chemical substance (yeast gene YMR191W, cultured two hours with substance): 1.0
The level of expressed mRNA in the presence of chemical substance/The level of expressed mRNA in the absence of chemical substance (yeast gene YMR295C, cultured two hours with substance): 1.9
The level of expressed mRNA in the presence of chemical substance/The level of expressed mRNA in the absence of chemical substance (yeast gene YMR316W, cultured two hours with substance): 0.7
The level of expressed mRNA in the presence of chemical substance/The level of expressed mRNA in the absence of chemical substance (yeast gene YNL044W, cultured two hours with substance): 0.9
The level of expressed mRNA in the presence of chemical substance/The level of expressed mRNA in the absence of chemical substance (yeast gene YNL074C, cultured two hours with substance): 1.7
The level of expressed mRNA in the presence of chemical substance/The level of expressed mRNA in the absence of chemical substance (yeast gene YNL092W, cultured two hours with substance): 1.2
The level of expressed mRNA in the presence of chemical substance/The level of expressed mRNA in the absence of chemical substance (yeast gene YNL115C, cultured two hours with substance): 9.1
The level of expressed mRNA in the presence of chemical substance/The level of expressed mRNA in the absence of chemical substance (yeast gene YNL156C, cultured two hours with substance): 1.3
The level of expressed mRNA in the presence of chemical substance/The level of expressed mRNA in the absence of chemical substance (yeast gene YNL160W (stress protein genes)): 5.8
The level of expressed mRNA in the presence of chemical substance/The level of expressed mRNA in the absence of chemical substance (yeast gene YNL190W, cultured two hours with substance): 0.5
The level of expressed mRNA in the presence of chemical substance/The level of expressed mRNA in the absence of chemical substance (yeast gene YNL208W, cultured two hours with substance): 1.4
The level of expressed mRNA in the presence of chemical substance/The level of expressed mRNA in the absence of chemical substance (yeast gene YNL234W, cultured two hours with substance): 1.3
The level of expressed mRNA in the presence of chemical substance/The level of expressed mRNA in the absence of chemical substance (yeast gene YNL281W, cultured two hours with substance): 0.9
The level of expressed mRNA in the presence of chemical substance/The level of expressed mRNA in the absence of chemical substance (yeast gene YNL300W, cultured two hours with substance): 0.4
The level of expressed mRNA in the presence of chemical substance/The level of expressed mRNA in the absence of chemical substance (yeast gene YNL305C, cultured two hours with substance): 1.1
The level of expressed mRNA in the presence of chemical substance/The level of expressed mRNA in the absence of chemical substance (yeast gene YNR064C, cultured two hours with substance): 2.1
The level of expressed mRNA in the presence of chemical substance/The level of expressed mRNA in the absence of chemical substance (yeast gene YNR068C, cultured two hours with substance): 0.4
The level of expressed mRNA in the presence of chemical substance/The level of expressed mRNA in the absence of chemical substance (yeast gene YOL032W, cultured two hours with substance): 2.1
The level of expressed mRNA in the presence of chemical substance/The level of expressed mRNA in the absence of chemical substance (yeast gene YOL036W, cultured two hours with substance): 1.2
The level of expressed mRNA in the presence of chemical substance/The level of expressed mRNA in the absence of chemical substance (yeast gene YOL047C, cultured two hours with substance): 1.5
The level of expressed mRNA in the presence of chemical substance/The level of expressed mRNA in the absence of chemical substance (yeast gene YOL071W, cultured two hours with substance): 1.7
The level of expressed mRNA in the presence of chemical substance/The level of expressed mRNA in the absence of chemical substance (yeast gene YOL082W, cultured two hours with substance): 1.8
The level of expressed mRNA in the presence of chemical substance/The level of expressed mRNA in the absence of chemical substance (yeast gene YOL083W, cultured two hours with substance): 4.5
The level of expressed mRNA in the presence of chemical substance/The level of expressed mRNA in the absence of chemical substance (yeast gene YOL117W, cultured two hours with substance): 2.0
The level of expressed mRNA in the presence of chemical substance/The level of expressed mRNA in the absence of chemical substance (yeast gene YOL131W, cultured two hours with substance): 1.1
The level of expressed mRNA in the presence of chemical substance/The level of expressed mRNA in the absence of chemical substance (yeast gene YOL150C, cultured two hours with substance): 5.2
The level of expressed mRNA in the presence of chemical substance/The level of expressed mRNA in the absence of chemical substance (yeast gene YOL162W, cultured two hours with substance): 1.2
The level of expressed mRNA in the presence of chemical substance/The level of expressed mRNA in the absence of chemical substance (yeast gene YOR019W, cultured two hours with substance): 1.3
The level of expressed mRNA in the presence of chemical substance/The level of expressed mRNA in the absence of chemical substance (yeast gene YOR197W, cultured two hours with substance): 1.3
The level of expressed mRNA in the presence of chemical substance/The level of expressed mRNA in the absence of chemical substance (yeast gene YOR248W, cultured two hours with substance): 0.2
The level of expressed mRNA in the presence of chemical substance/The level of expressed mRNA in the absence of chemical substance (yeast gene YOR255W, cultured two hours with substance): 0.5
The level of expressed mRNA in the presence of chemical substance/The level of expressed mRNA in the absence of chemical substance (yeast gene YOR382W, cultured two hours with substance): 13.1
The level of expressed mRNA in the presence of chemical substance/The level of expressed mRNA in the absence of chemical substance (yeast gene YOR383C): 6.8
The level of expressed mRNA in the presence of chemical substance/The level of expressed mRNA in the absence of chemical substance (yeast gene YPL052W, cultured two hours with substance): 1.9
The level of expressed mRNA in the presence of chemical substance/The level of expressed mRNA in the absence of chemical substance (yeast gene YPL087W, cultured two hours with substance): 4.3
The level of expressed mRNA in the presence of chemical substance/The level of expressed mRNA in the absence of chemical substance (yeast gene YPL196W, cultured two hours with substance): 2.0
The level of expressed mRNA in the presence of chemical substance/The level of expressed mRNA in the absence of chemical substance (yeast gene YPL206C, cultured two hours with substance): 1.8
The level of expressed mRNA in the presence of chemical substance/The level of expressed mRNA in the absence of chemical substance (yeast gene YPL222W, cultured two hours with substance): 2.2
The level of expressed mRNA in the presence of chemical substance/The level of expressed mRNA in the absence of chemical substance (yeast gene YPR023C, cultured two hours with substance): 1.4
The level of expressed mRNA in the presence of chemical substance/The level of expressed mRNA in the absence of chemical substance (yeast gene YPR079W, cultured two hours with substance): 1.0
The level of expressed mRNA in the presence of chemical substance/The level of expressed mRNA in the absence of chemical substance (yeast gene YPR151C, cultured two hours with substance): 1.6
